Assay results published in patent publication US11219621B2, “Methods for treating immunodeficiency disease” (X4 Pharmaceuticals, Inc., priority 2015, dated 2022).

Tests used:
[1] = 28-Day GLP oral (capsule) toxicity study in the Beagle dog with 14-day recovery; type: in vivo
Experimental: A 28-Day GLP oral (capsule) toxicology study was conducted with […]-001 in the male and female beagle dog, and hematology effects were observed, with […]-001 administered twice-daily (at least 7 hours apart) by oral capsule for 28 days. A subset of treated animals was evaluated after a 14-day recovery period. [table] [table]

[2] = system: granulocyte-macrophage (CFU-GM), erythroid (BFU-E) and multipotential (CFU-GEMM) progenitor cells; test: Progenitor/stem cell mobilization in mice after single subcutaneous injection; type: in vivo, C3H/HeJ mice; conditions: for BFU (BFU-E), Mean / GEMM (CFU-GEMM), Mean / GM (CFU-GM), Mean: progenitor cells per mL of blood
Experimental: All experiments were performed in […] mice. […] The progenitors were stimulated to form colonies in vitro with the combination of 1 U/mL rhu EPO, 50 ng/mL rmu SLF, 5% vol/vol pokeweed mitogen mouse spleen cell conditioned medium (PWMSCM), and 0.1 mM hemin. Plates were scored 7 days after incubation at 37° C., 5% CO2, lowered […] and in a humidified chamber.
In the first experiment (data shown in Table 6), mice received a dose of 5 mg/kg- and the number of progenitors in the circulating blood was measured at various time points (0.25, 0.5, 1, 2, 6 and 24 hours).

CXCR4 = CXCR4 (Homo sapiens, UniProt P61073); conditions: SDF-1α dose/response in calcium flux assay with increasing amounts of X4P-001; cited from earlier work
CCR4 = target: T1, CCR4 (Homo sapiens, UniProt P51679); conditions: cited from earlier work
T1 construct: expressed in transfected cells
T1 sequence (P51679 1-360): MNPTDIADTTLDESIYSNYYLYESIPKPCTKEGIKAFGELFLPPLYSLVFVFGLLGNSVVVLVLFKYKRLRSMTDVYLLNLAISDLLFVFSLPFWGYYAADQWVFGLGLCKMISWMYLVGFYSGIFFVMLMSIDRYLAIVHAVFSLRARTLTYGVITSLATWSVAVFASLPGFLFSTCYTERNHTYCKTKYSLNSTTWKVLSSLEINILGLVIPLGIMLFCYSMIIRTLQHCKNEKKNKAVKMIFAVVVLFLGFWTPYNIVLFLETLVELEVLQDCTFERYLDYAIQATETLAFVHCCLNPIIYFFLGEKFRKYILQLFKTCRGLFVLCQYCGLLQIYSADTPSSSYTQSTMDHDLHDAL

CCR7 = target: T2, CCR7 (Homo sapiens, UniProt P32248); conditions: cited from earlier work
T2 construct: endogenous in cells
T2 sequence (P32248 25-378): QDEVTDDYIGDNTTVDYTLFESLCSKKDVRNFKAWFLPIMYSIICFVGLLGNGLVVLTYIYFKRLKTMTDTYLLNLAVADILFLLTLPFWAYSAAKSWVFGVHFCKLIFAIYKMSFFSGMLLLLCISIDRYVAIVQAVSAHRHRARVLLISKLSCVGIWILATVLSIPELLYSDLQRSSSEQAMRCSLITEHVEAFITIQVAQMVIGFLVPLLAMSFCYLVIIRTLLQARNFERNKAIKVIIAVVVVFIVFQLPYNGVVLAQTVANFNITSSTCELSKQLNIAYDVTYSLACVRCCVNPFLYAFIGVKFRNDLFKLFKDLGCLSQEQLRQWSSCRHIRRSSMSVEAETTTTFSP

BLT1 = target: T3, BLT1 (Homo sapiens, UniProt Q15722); conditions: cited from earlier work
T3 construct: expressed in transfected cells

[3] = F, 10 mg/kg/d, termination, †p < 0.05
[4] = F, 30 mg/kg/d, termination, †p < 0.05
[5] = F, 100 mg/kg/d, termination, †p < 0.05
[6] = M, 100 mg/kg/d, termination, †p < 0.05
[7] = Table 6, 5 mg/kg s.c., @ - 2′ (2 h)
[8] = Table 6, 5 mg/kg s.c., @ - 6′ (6 h)
[9] = Table 6, 5 mg/kg s.c., @ - 15″ ([…])
[10] = Table 6, 5 mg/kg s.c., @ - 24′ (24 h)
[11] = Table 6, 5 mg/kg s.c., @ - 30″ (0.5 h)
[12] = Table 6, 5 mg/kg s.c., @ - 60″ (1 h)
[13] = Table 7, 1 hour post-injection, 1.5 mg/kg s.c.
[14] = Table 7, 1 hour post-injection, 5 mg/kg s.c.
[15] = Table 7, 1 hour post-injection, 10 mg/kg s.c.
[16] = Table 7, 1 hour post-injection, 20 mg/kg s.c.
[17] = Table 8, 5 mg/kg s.c., @ - 2′ (2 h)
[18] = Table 8, 5 mg/kg s.c., @ - 15″ ([…])
[19] = Table 8, 5 mg/kg s.c., @ - 30″ (0.5 h)
[20] = Table 8, 5 mg/kg s.c., @ - 60″ (1 h)
[21] = time course, 5 mg/kg s.c., 30-60 min.

T3 sequence (Q15722 whole entry): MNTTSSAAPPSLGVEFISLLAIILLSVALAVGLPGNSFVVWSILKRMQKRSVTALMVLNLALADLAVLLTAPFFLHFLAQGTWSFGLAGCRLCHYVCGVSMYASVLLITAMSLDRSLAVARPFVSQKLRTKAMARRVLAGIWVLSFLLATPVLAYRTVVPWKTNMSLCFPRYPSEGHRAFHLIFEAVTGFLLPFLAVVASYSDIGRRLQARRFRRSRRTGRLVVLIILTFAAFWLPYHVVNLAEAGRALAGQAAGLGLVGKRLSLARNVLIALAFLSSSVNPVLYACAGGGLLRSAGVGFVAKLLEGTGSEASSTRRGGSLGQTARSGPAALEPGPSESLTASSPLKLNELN
CXCR4, sequence (P61073 whole entry): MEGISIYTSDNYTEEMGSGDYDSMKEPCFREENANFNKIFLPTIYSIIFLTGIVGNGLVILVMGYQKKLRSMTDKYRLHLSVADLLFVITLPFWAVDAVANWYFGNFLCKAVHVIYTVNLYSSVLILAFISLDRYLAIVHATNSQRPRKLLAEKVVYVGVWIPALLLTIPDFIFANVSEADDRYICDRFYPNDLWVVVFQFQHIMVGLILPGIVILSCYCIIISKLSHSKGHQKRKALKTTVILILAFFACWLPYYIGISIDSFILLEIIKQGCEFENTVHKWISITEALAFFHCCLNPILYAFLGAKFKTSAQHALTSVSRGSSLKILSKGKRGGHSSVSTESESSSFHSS

NCCCCN(Cc1nc2ccccc2[nH]1)[C@H]1CCCc2cccnc21 [X4P-001]
Coagulation ([1]; 10 mg/kg/d, termination): No changes
reticulocytes ([1]; 10 mg/kg/d, termination): No changes
Coagulation ([1]; 30 mg/kg/d, termination): No changes
reticulocytes ([1]; 30 mg/kg/d, termination): No changes
Coagulation ([1]; 100 mg/kg/d, termination): No changes
lymphocytes (abs), incr ([1]; F, 10 mg/kg/d, termination): F incr 1.4x
monocytes (abs), incr [1, 3]: F incr 1.6x†
neutrophils (abs), incr [1, 3]: F incr 1.9x†
lymphocytes (abs), incr [1, 4]: F incr 1.6x†
monocytes (abs), incr [1, 4]: F incr 1.9x†
neutrophils (abs), incr [1, 4]: F incr 2.3x†
lymphocytes (abs), incr [1, 5]: F incr 1.4x†
monocytes (abs), incr [1, 5]: F incr 2.4x†
neutrophils (abs), incr [1, 5]: F incr 2.8x†
reticulocytes, decr [1, 5]: F decr 0.24x†
lymphocytes (abs), incr ([1]; M, 10 mg/kg/d, termination): M incr 1.3x;
monocytes (abs), incr ([1]; M, 10 mg/kg/d, termination): M incr 1.2x;
neutrophils (abs), incr ([1]; M, 10 mg/kg/d, termination): M incr 1.2x;
lymphocytes (abs), incr ([1]; M, 30 mg/kg/d, termination): M incr 1.6x;
monocytes (abs), incr ([1]; M, 30 mg/kg/d, termination): M incr 1.3x;
neutrophils (abs), incr ([1]; M, 30 mg/kg/d, termination): M incr 1.2x;
neutrophils (abs), incr ([1]; M, 100 mg/kg/d, termination): M incr 1.8x;
lymphocytes (abs), incr [1, 6]: M incr 2.3x†;
monocytes (abs), incr [1, 6]: M incr 1.9x†;
All hematology results after the 14-day recovery period ([1]; only 100 mg/kg dose group evaluated): returned to within normal levels
BFU (BFU-E), Mean [2, 7]: 165.3
GEMM (CFU-GEMM), Mean [2, 7]: 68.9
GM (CFU-GM), Mean [2, 7]: 897.5
BFU (BFU-E), Mean [2, 8]: 99.9
GEMM (CFU-GEMM), Mean [2, 8]: 37.6
GM (CFU-GM), Mean [2, 8]: 387.5
BFU (BFU-E), Mean [2, 9]: 148.8
GEMM (CFU-GEMM), Mean [2, 9]: 65.6
GM (CFU-GM), Mean [2, 9]: 785.1
BFU (BFU-E), Mean [2, 10]: 84.6
GEMM (CFU-GEMM), Mean [2, 10]: 37.7
GM (CFU-GM), Mean [2, 10]: 386.3
BFU (BFU-E), Mean [2, 11]: 230.4
GEMM (CFU-GEMM), Mean [2, 11]: 99.6
GM (CFU-GM), Mean [2, 11]: 1273.8
BFU (BFU-E), Mean [2, 12]: 235.1
GEMM (CFU-GEMM), Mean [2, 12]: 103.1
GM (CFU-GM), Mean [2, 12]: 866.0
Nucleated Cellularity PBL-LD, Mean ([2]; Table 6 time course, 5 mg/kg s.c., @ - 2′ (2 h)): 8.29e+06 mL⁻¹
Nucleated Cellularity PBL-LD, Mean ([2]; Table 6 time course, 5 mg/kg s.c., @ - 6′ (6 h)): 5.66e+06 mL⁻¹
Nucleated Cellularity PBL-LD, Mean ([2]; Table 6 time course, 5 mg/kg s.c., @ - 15″ ([…])): 5.1e+06 mL⁻¹
Nucleated Cellularity PBL-LD, Mean ([2]; Table 6 time course, 5 mg/kg s.c., @ - 24′ (24 h)): 4.31e+06 mL⁻¹
Nucleated Cellularity PBL-LD, Mean ([2]; Table 6 time course, 5 mg/kg s.c., @ - 30″ (0.5 h)): 6.14e+06 mL⁻¹
Nucleated Cellularity PBL-LD, Mean ([2]; Table 6 time course, 5 mg/kg s.c., @ - 60″ (1 h)): 6.92e+06 mL⁻¹
BFU (BFU-E), Mean [2, 13]: 143.8
GM (CFU-GM), Mean [2, 13]: 428.0
BFU (BFU-E), Mean [2, 14]: 181.6
GEMM (CFU-GEMM), Mean [2, 14]: 141.0
GM (CFU-GM), Mean [2, 14]: 1119.8
GEMM (CFU-GEMM), Mean [2, 15]: 224.4
GM (CFU-GM), Mean [2, 15]: 1444.2
BFU (BFU-E), Mean [2, 16]: 261.4
GEMM (CFU-GEMM), Mean [2, 16]: 145.0
GM (CFU-GM), Mean [2, 16]: 1314.2
Nucleated Cellularity PBL-LD, Mean ([2]; Table 7 dose response, 1 hour post-injection, 1.5 mg/kg s.c.): 6.94e+06 mL⁻¹
Nucleated Cellularity PBL-LD, Mean ([2]; Table 7 dose response, 1 hour post-injection, 5 mg/kg s.c.): 7.65e+06 mL⁻¹
Nucleated Cellularity PBL-LD, Mean ([2]; Table 7 dose response, 1 hour post-injection, 10 mg/kg s.c.): 9.94e+06 mL⁻¹
BFU (BFU-E), Mean [2, 17]: 108.5
GEMM (CFU-GEMM), Mean [2, 17]: 62.4
GM (CFU-GM), Mean [2, 17]: 619.6
BFU (BFU-E), Mean [2, 18]: 188.9
GEMM (CFU-GEMM), Mean [2, 18]: 93.8
GM (CFU-GM), Mean [2, 18]: 588.3
GEMM (CFU-GEMM), Mean [2, 19]: 79.0
GM (CFU-GM), Mean [2, 19]: 705.9
GEMM (CFU-GEMM), Mean [2, 20]: 102.2
GM (CFU-GM), Mean [2, 20]: 761.4
Nucleated Cellularity PBL-LD, Mean ([2]; Table 8 comparison, 5 mg/kg s.c., @ - 2′ (2 h)): 9.71e+06 mL⁻¹
Nucleated Cellularity PBL-LD, Mean ([2]; Table 8 comparison, 5 mg/kg s.c., @ - 15″ ([…])): 8.04e+06 mL⁻¹
Nucleated Cellularity PBL-LD, Mean ([2]; Table 8 comparison, 5 mg/kg s.c., @ - 30″ (0.5 h)): 8.28e+06 mL⁻¹
Nucleated Cellularity PBL-LD, Mean ([2]; Table 8 comparison, 5 mg/kg s.c., @ - 60″ (1 h)): 7.34e+06 mL⁻¹
Peak increase of BFU-E over control (saline injection) [2, 21]: 2.49-2.54 fold
Peak increase of CFU-GEMM over control (saline injection) [2, 21]: 2.58-2.67 fold
Peak increase of CFU-GM over control (saline injection) ([2]; time course, 5 mg/kg s.c., 30 min.): 4.21 fold
Time of peak of nucleated cell mobilization ([2]; time course, 5 mg/kg s.c., approximately): 1-2 hours post-injection
Number of circulating progenitors ([2]; up to a dose of 5-10 mg/kg s.c.): dose-dependently increased
Mode of inhibition of CXCR4 (CXCR4): allosteric inhibitor
IC50 (CCR4; CCR4, HEK293F-CCR4-Gαq15, TARC/CCL17, read-out: IC50 AMD11070): > 50 µM
Inhibitory effect on TARC mediated calcium flux (CCR4) (CCR4): little or no inhibitory effect
IC50 (CCR7; CCR7, CCRF-CEM, MIP-3β/CCL19, read-out: IC50 AMD11070): > 50 µM
Inhibitory effect on MIP-3β mediated calcium flux (CCR7) (CCR7): little or no inhibitory effect
IC50 (BLT1; BLT1, CHO-S-LTB4, LTB4, ligand binding, read-out: IC50 AMD11070): > 50 µM
Inhibitory effect on LTB4 binding to BLT1 (BLT1): little or no inhibitory effect
